What is called IC50 is the concentration needed to halve the response being measured.

Experimental findings from paper PMC10125213 (Journal of Molecular Biology, 2023) are described below.

Type in all cases: binding, SARS-CoV-2
In experiment [1] the target is BA.2 S protein (Severe acute respiratory syndrome coronavirus 2, UniProt P0DTC2, A27S/D405N/D614G/D796Y/DEL24-26/E484A/G142D/G339D/H655Y/K417N/N440K/N501Y/N679K/N764K/N969K/P681H/Q493R/Q498R/Q954H/R408S/S371F/S373P/S375F/S477N/T19I/T376A/T478K/V213G/Y505H).
Experiment [2] concerns the target BA.4/5 S protein (Severe acute respiratory syndrome coronavirus 2, UniProt P0DTC2, A27S/D405N/D614G/D796Y/DEL24-26/DEL69-70/E484A/F486V/G142D/G339D/H655Y/K417N/L452R/N440K/N501Y/N679K/N764K/N969K/P681H/Q498R/Q954H/R408S/S371F/S373P/S375F/S477N/T19I/T376A/T478K/V213G/Y505H).
Experiment [3] concerns the target Omicron (BA.1) S protein (Severe acute respiratory syndrome coronavirus 2, UniProt P0DTC2, A67V/D614G/D796Y/DEL143-145/DEL211-211/DEL69-70/E484A/G142D/G339D/G446S/G496S/H655Y/INS214EPE/K417N/L212I/L981F/N440K/N501Y/N679K/N764K/N856K/N969K/P681H/Q493K/Q498R/Q954H/S371L/S373P/S375F/S477N/T478K/T547K/T95I/Y505H).
In experiment [4] the test system is RBM mutant RBD protein derived from BA.2.
The target of experiment [5] is Omicron RBD (Severe acute respiratory syndrome coronavirus 2, UniProt P0DTC2, E484A/G339D/G446S/G496S/K417N/N440K/N501Y/Q493K/Q498R/S371L/S373P/S375F/S477N/T478K/Y505H).
In experiment [6] the target is RBM mutant RBD protein derived from BA.4/5 (Severe acute respiratory syndrome coronavirus 2, UniProt P0DTC2, E484A/F486V/L452R/N440K/N501Y/Q498R/S477N/T478K/Y505H).

Where only a bound is given, the exact number is not on record here.

Consider `N[C@@H](CCC(=O)N[C@@H](CS)C(=O)NCC(=O)O)C(=O)O` [GSH, reduced glutathione], for which the IC50 in experiment [1], in experiment [2] and in experiment [3] was less than 10 mM each time.

On to `O=C(O)CCP(CCC(=O)O)CCC(=O)O` [TCEP, tris-(2-carboxyethyl)phosphine], for which the “sensitivity to TCEP compared to WT protein” value in experiment [4] and in experiment [6] was “enhanced sensitivities” each time. Moreover, the “inhibition of activity of Omicron RBD” value in experiment [5] is given as greater than 80%.
